Measured values from US20210032257A1, “(E)-1-(4-(DIMETHYLAMINO)BUT-2-ENOYL)PYRROLIDIN-3-YL 4-((3-ISOPROPYL-5-METHYLPYRAZOLO[1,5-A]PYRIMIDIN-7-YL)AMINO)PIPERIDINE-1-CARBOXYLATE FOR INHIBITING CDK7” (Eli Lilly and Company, priority 2017, published 2021).
pIC50: −log10 of the molar value.

How the values were obtained:
Test in all cases: Biomarker study proliferation (CellTiter-Glo)
Type in all cases: cell-based
[1] = tested on: SNU1
Procedure, shortened: (§1)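 Cell lines were chosen by ARID1A, KMT2C, KMT2D and/or RB1 status from COSMIC and cBioportal. Viability after 7 days of treatment was measured by CellTiter-Glo luminescence, with 5 μM staurosporine as the full-inhibition control.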

[2] = tested on: NCIH2122
Procedure, shortened: as §1

[3] = tested on: U118MG
Procedure, shortened: as §1

[4] = tested on: RKO
Procedure, shortened: as §1

[5] = tested on: SKUT1
Procedure, shortened: as §1

[6] = tested on: SNU739
Procedure, shortened: as §1

[7] = tested on: SAOS2
Procedure, shortened: as §1

[8] = tested on: JHH4
Procedure, shortened: as §1

[9] = tested on: Karpas1106
Procedure, shortened: as §1

[10] = tested on: SNU423
Procedure, shortened: as §1

[11] = tested on: HT1197
Procedure, shortened: as §1

[12] = tested on: A673
Procedure, shortened: as §1

[13] = tested on: NCIH358
Procedure, shortened: as §1

[14] = tested on: NCIH2228
Procedure, shortened: as §1

[15] = tested on: MKN45
Procedure, shortened: as §1

[16] = tested on: HUH28
Procedure, shortened: as §1

[17] = tested on: HCT116
Procedure, shortened: as §1

[18] = tested on: NCIH2081
Procedure, shortened: as §1

[19] = tested on: T98G
Procedure, shortened: as §1

[20] = Homo sapiens, 168 h, read-out: Anti-proliferation effect IC50
[21] = 168 h, read-out: Anti-proliferation effect IC50

Compound: Cc1cc(NC2CCN(C(=O)O[C@H]3CCN(C(=O)/C=C/CN(C)C)C3)CC2)n2ncc(C(C)C)c2n1 [Example 1, [(3S)-1-[(E)-4-(dimethylamino)but-2-enoyl]pyrrolidin-3-yl] 4-[(3-isopropyl-5-methyl-pyrazolo[1,5-a]pyrimidin-7-yl)amino]piperidine-1-carboxylate]
- pIC50 ([1]; Homo sapiens, SNU1, 168 h, read-out: Anti-proliferation effect IC50): 6.98
- Anti-proliferation effect % Inh. ([1]; SNU1, STOMACH, 7 days): 68%
- Anti-proliferation effect Outcome ([1]; SNU1, STOMACH, 7 days): Cytostatic (cytostatic (IC50<1 μM and % inhibition <70%))
- pIC50 ([2]; Homo sapiens, NCI-H2122, 168 h, read-out: Anti-proliferation effect IC50): 7.11
- Anti-proliferation effect % Inh. ([2]; NCIH2122, LUNG, 7 days): 85%
- Anti-proliferation effect Outcome ([2]; NCIH2122, LUNG, 7 days): Cytotoxic (cytotoxic (IC50<1 μM and % inhibition ≥70%))
- pIC50 ([3]; Homo sapiens, U-118-MG, 168 h, read-out: Anti-proliferation effect IC50): 5.93
- Anti-proliferation effect % Inh. ([3]; U118MG, CNS, 7 days): 42%
- Anti-proliferation effect Outcome ([3]; U118MG, CNS, 7 days): Insensitive (insensitive (IC50≥1 μM))
- pIC50 [4, 20]: 6.93
- Anti-proliferation effect % Inh. ([4]; INTESTINE, 7 days): 61%
- Anti-proliferation effect Outcome ([4]; INTESTINE, 7 days): Cytostatic (cytostatic (IC50<1 μM and % inhibition <70%))
- pIC50 ([5]; Homo sapiens, SK-UT-1, 168 h, read-out: Anti-proliferation effect IC50): 7.39
- Anti-proliferation effect % Inh. ([5]; SKUT1, SOFT TISSUE, 7 days): 89%
- Anti-proliferation effect Outcome ([5]; SKUT1, SOFT TISSUE, 7 days): Cytotoxic (cytotoxic (IC50<1 μM and % inhibition ≥70%))
- Anti-proliferation effect % Inh. ([6]; SNU739, LIVER, 7 days): 47%
- Anti-proliferation effect Outcome ([6]; SNU739, LIVER, 7 days): Insensitive (insensitive (IC50≥1 μM))
- pIC50 ([6]; SNU-739, 168 h, read-out: Anti-proliferation effect IC50): < 5.00
- pIC50 ([7]; Homo sapiens, SAOS-2, 168 h, read-out: Anti-proliferation effect IC50): 7.55
- Anti-proliferation effect % Inh. ([7]; SAOS2, BONE, 7 days): 66%
- Anti-proliferation effect Outcome ([7]; SAOS2, BONE, 7 days): Cytostatic (cytostatic (IC50<1 μM and % inhibition <70%))
- Anti-proliferation effect % Inh. ([8]; JHH4, LIVER, 7 days): 65%
- Anti-proliferation effect Outcome ([8]; JHH4, LIVER, 7 days): Cytostatic (cytostatic (IC50<1 μM and % inhibition <70%))
- pIC50 ([8]; JHH-4, 168 h, read-out: Anti-proliferation effect IC50): 6.78
- pIC50 [9, 21]: 7.59
- Anti-proliferation effect % Inh. ([9]; Karpas1106, BLOOD, 7 days): 98%
- Anti-proliferation effect Outcome ([9]; Karpas1106, BLOOD, 7 days): Cytotoxic (cytotoxic (IC50<1 μM and % inhibition ≥70%))
- pIC50 ([10]; Homo sapiens, SNU-423, 168 h, read-out: Anti-proliferation effect IC50): < 5.00
- Anti-proliferation effect % Inh. ([10]; SNU423, LIVER, 7 days): 40%
- Anti-proliferation effect Outcome ([10]; SNU423, LIVER, 7 days): Insensitive (insensitive (IC50≥1 μM))
- Anti-proliferation effect % Inh. ([11]; HT1197, URINARY, 7 days): 55%
- Anti-proliferation effect Outcome ([11]; HT1197, URINARY, 7 days): Cytostatic (cytostatic (IC50<1 μM and % inhibition <70%))
- pIC50 ([11]; Homo sapiens, HT1197, 168 h, read-out: Anti-proliferation effect IC50): 6.55
- Anti-proliferation effect % Inh. ([12]; A673, BONE, 7 days): 96%
- Anti-proliferation effect Outcome ([12]; A673, BONE, 7 days): Cytotoxic (cytotoxic (IC50<1 μM and % inhibition ≥70%))
- pIC50 ([12]; Homo sapiens, A673, 168 h, read-out: Anti-proliferation effect IC50): 7.85
- pIC50 ([13]; Homo sapiens, NCI-H358, 168 h, read-out: Anti-proliferation effect IC50): 7.38
- Anti-proliferation effect % Inh. ([13]; NCIH358, LUNG, 7 days): 93%
- Anti-proliferation effect Outcome ([13]; NCIH358, LUNG, 7 days): Cytotoxic (cytotoxic (IC50<1 μM and % inhibition ≥70%))
- pIC50 ([14]; Homo sapiens, NCI-H2228, 168 h, read-out: Anti-proliferation effect IC50): 6.56
- Anti-proliferation effect % Inh. ([14]; NCIH2228, LUNG, 7 days): 57%
- Anti-proliferation effect Outcome ([14]; NCIH2228, LUNG, 7 days): Cytostatic (cytostatic (IC50<1 μM and % inhibition <70%))
- pIC50 ([15]; Homo sapiens, MKN-45, 168 h, read-out: Anti-proliferation effect IC50): 7.25
- Anti-proliferation effect % Inh. ([15]; MKN45, STOMACH, 7 days): 79%
- Anti-proliferation effect Outcome ([15]; MKN45, STOMACH, 7 days): Cytotoxic (cytotoxic (IC50<1 μM and % inhibition ≥70%))
- pIC50 [16, 21]: 5.54
- Anti-proliferation effect % Inh. ([16]; HUH28, BILIARY, 7 days): 32%
- Anti-proliferation effect Outcome ([16]; HUH28, BILIARY, 7 days): Insensitive (insensitive (IC50≥1 μM))
- Anti-proliferation effect % Inh. ([17]; HCT116, INTESTINE, 7 days): 88%
- Anti-proliferation effect Outcome ([17]; HCT116, INTESTINE, 7 days): Cytotoxic (cytotoxic (IC50<1 μM and % inhibition ≥70%))
- pIC50 ([17]; Homo sapiens, HCT-116, 168 h, read-out: Anti-proliferation effect IC50): 7.39
- pIC50 ([18]; Homo sapiens, NCI-H2081, 168 h, read-out: Anti-proliferation effect IC50): 6.35
- Anti-proliferation effect % Inh. ([18]; NCIH2081, LUNG, 7 days): 44%
- Anti-proliferation effect Outcome ([18]; NCIH2081, LUNG, 7 days): Cytostatic (cytostatic (IC50<1 μM and % inhibition <70%))
- Anti-proliferation effect % Inh. ([19]; CNS, 7 days): 44%
- Anti-proliferation effect Outcome ([19]; CNS, 7 days): Insensitive (insensitive (IC50≥1 μM))
- pIC50 [19, 20]: 5.86
